From patent US7119073B2, “Peptides and their use as inhibitors of hepatitis C virus ns3 protease” (Istituto Di Ricerche Di Biologia Molecolare P. Angeletti SpA, priority 2001, dated 2006)
Where two headings read alike, the source gives them in different places.

Target: T1, NS3 protease domain complexed to a modified form of the NS4A peptide (Pep4AK) (Hepatitis C virus genotype 1b, UniProt P26663)
T1 construct: NS3 protease domain (residues 1027–1206 of the HCV polyprotein)
Assay: HCV NS3 protease domain/NS4A cofactor peptide assay (Assay B)
Type: biochemical

[1] = Table 1, NS3 protease domain/Pep4AK, 4AB peptide substrate, read-out: Assay B
[2] = Table 2, NS3 protease domain/Pep4AK, read-out: Assay B
[3] = Table 4, NS3 protease domain/Pep4AK, read-out: Assay B
[4] = NS3 protease domain/NS4A cofactor peptide assay, read-out: Assay B (IC50 class)

T1 sequence (P26663 1027-1206, other chains not shown): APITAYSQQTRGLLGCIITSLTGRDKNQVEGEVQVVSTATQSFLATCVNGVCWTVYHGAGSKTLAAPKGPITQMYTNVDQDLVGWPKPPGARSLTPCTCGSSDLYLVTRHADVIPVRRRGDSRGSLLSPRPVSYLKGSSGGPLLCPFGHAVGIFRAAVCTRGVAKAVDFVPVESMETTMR

SMILES | IC50 [1] | IC50 [2] | further results
CC(C)C[C@H](NC(=O)[C@H](CCC(=O)O)NC(=O)Nc1ccccc1)C(=O)N[C@@H](CS)C(=O)NCCc1ccccc1Cl [Compound 247] | – | < 100 µM | –
CC(C)COC(=O)N[C@@H](CCC(=O)O)C(=O)N[C@@H](CC(F)F)C(=O)N[C@@H](CS)C(=O)NCCc1ccc(C(=O)O)cc1 [Compound 402] | – | – | IC50 [3]: < 100 µM
CC(C)COC(=O)NC(CCC(=O)O)C(=O)N1CCC1C(=O)NC(CS)C(=O)NCCc1ccccc1Cl (stereo not shown) [Compound 418] | – | – | IC50 [3]: < 100 µM
CC(C)COC(=O)N[C@@H](CCC(=O)O)C(=O)N[C@@H](CC(C)C)C(=O)N[C@@H](CS)C(=O)NCCc1ccc(Cl)cc1Cl [Compound 165] | < 10 µM | – | –
CC(C)C[C@H](NC(=O)[C@H](CCC(=O)O)NC(=O)CCCC(=O)O)C(=O)N[C@@H](CS)C(=O)NCCc1ccccc1Cl [Compound 244] | – | < 100 µM | –
CC(C)C[C@H](NC(=O)C1(Cc2ccsc2C(=O)O)CCc2ccccc2N1)C(=O)N[C@@H](CC(F)F)C(=O)NCCc1c(F)cc(C(=O)O)cc1F (single isomer, unassigned) [Compound 713] | – | – | IC50 [4]: < 100 µM
CCOC(=O)C=Cc1cccc(CCNC(=O)C(CC(F)F)NC(=O)C(CC(C)C)NC(=O)c2ccccc2-c2ccccc2C(=O)O)c1 (stereo not shown) [Compound 719] | – | – | IC50 [4]: < 100 µM
CC(C)COC(=O)N[C@@H](CCC(=O)O)C(=O)N[C@@H](CCC(=O)OCc1ccccc1)C(=O)N[C@@H](CS)C(=O)NCCc1ccccc1Cl [Compound 413] | – | – | IC50 [3]: < 100 µM
CCCC[C@H](NC(=O)[C@H](CCC(=O)O)NC(=O)OCC(C)C)C(=O)N[C@@H](CS)C(=O)NCCc1ccccc1Cl [Compound 407] | – | – | IC50 [3]: < 100 µM
Cc1ccc(S(=O)(=O)N[C@@H](CCC(=O)O)C(=O)N[C@@H](CC(C)C)C(=O)N[C@@H](CS)C(=O)NCCc2ccccc2Cl)cc1 [Compound 251] | – | < 100 µM | –
CC(C)COC(=O)NC(CCC(=O)O)C(=O)N1C(C(=O)NC(CS)C(=O)NCCc2ccccc2Cl)CCC1c1ccccc1 (stereo not shown) [Compound 422] | – | – | IC50 [3]: < 100 µM
CC(C)C[C@H](NC(=O)[C@H](CCC(=O)O)NC(=O)[C@@H](O)c1ccccc1)C(=O)N[C@@H](CS)C(=O)NCCc1ccccc1Cl [Compound 221] | – | < 10 µM | –
CC(C)C[C@H](NC(=O)C1(Cc2ccc(C(=O)O)s2)Cc2ccccc2N1)C(=O)N[C@@H](CS)C(=O)NCCc1ccc(C(=O)O)cc1 (mixture of isomers) [Compound 703] | – | – | IC50 [4]: < 100 µM
CC(C)COC(=O)N[C@@H](CCC(=O)O)C(=O)N1C=CC[C@H]1C(=O)N[C@@H](CS)C(=O)NCCc1ccccc1Cl [Compound 419] | – | – | IC50 [3]: < 100 µM
CC(C)C[C@H](NC(=O)[C@H](CCC(=O)O)NC(=O)CCC1CCCC1)C(=O)N[C@@H](CS)C(=O)NCCc1ccccc1Cl [Compound 235] | – | < 100 µM | –
CC(C)C[C@H](NC(=O)[C@H](CCC(=O)O)NC(=O)c1ccccc1-c1ccccc1C(=O)O)C(=O)N[C@@H](CS)C(=O)NCCc1ccccc1Cl [Compound 211] | – | < 100 µM | –
CC(C)CC(NC(=O)c1ccccc1-c1ccccc1C(=O)O)C(=O)NC(CS)C(=O)NCCc1ccccc1Cl (stereo not shown) [Compound 716] | – | – | IC50 [4]: < 100 µM
COc1ccc(CCNC(=O)[C@H](CS)NC(=O)[C@H](CC(C)C)NC(=O)[C@H](CCC(=O)O)NC(=O)C2C[C@H]2c2ccccc2)cc1 (stereo partly shown) [Compound 220] | – | < 100 µM | –
CC(C)COC(=O)NC(C(=O)NC(CC(C)C)C(=O)NC(CC(F)F)C(=O)NCCc1ccc(C(=O)O)cc1Cl)C(C)C (stereo not shown) [Compound 179] | < 10 µM | – | –
CC(C)C[C@H](NC(=O)[C@H](CCC(=O)O)NC(=O)Cc1ccc(CC(=O)O)cc1)C(=O)N[C@@H](CS)C(=O)NCCc1ccc(Cl)cc1Cl [Compound 227] | – | < 100 µM | –
CC(C)CCOC(=O)NC(C(=O)NC(CC(C)C)C(=O)NC(CS)C(=O)NCCc1ccc(C(=O)O)cc1Cl)C(C)C (stereo not shown) [Compound 184] | < 10 µM | – | –
CC(C)C[C@H](NC(=O)[C@H](CCC(=O)O)NC(=O)c1ccncc1N)C(=O)N[C@@H](CS)C(=O)NCCc1ccccc1Cl [Compound 209] | – | < 100 µM | –
CC(C)COC(=O)NC(C(=O)NC(CC(C)C)C(=O)NC(CS)C(=O)NCCc1ccc(C(=O)O)cc1)C(C)C (stereo not shown) [Compound 152] | < 10 µM | – | –

Further lines, with some results ahead:

IC50 [1] | IC50 [2] | SMILES | further results
< 100 µM | – | CC(C)COC(=O)NC(CCC(=O)O)C(=O)NC(CC(C)C)C(=O)NC(CS)C(=O)NCCc1ccc(Br)cc1 (stereo not shown) [Compound 139] | –
– | < 100 µM | CC(C)C[C@H](NC(=O)[C@H](CCC(=O)O)NC(=O)c1cc(O)ccc1N)C(=O)N[C@@H](CS)C(=O)NCCc1ccccc1Cl [Compound 208] | –
< 100 µM | – | CC(C)COC(=O)NC(CCC(=O)O)C(=O)NC(CC(C)C)C(=O)NC(CS)C(=O)NCCc1ccc(O)cc1 (stereo not shown) [Compound 146] | –
– | < 100 µM | COc1ccc(CCNC(=O)[C@H](CS)NC(=O)[C@H](CC(C)C)NC(=O)[C@H](CCC(=O)O)NC(=O)CCC2CCCC2)cc1 [Compound 236] | –
< 100 µM | – | COc1ccc(OC)c(CCNC(=O)C(CS)NC(=O)C(CC(C)C)NC(=O)C(CCC(=O)O)NC(=O)OCC(C)C)c1 (stereo not shown) [Compound 174] | –
< 100 µM | – | CC(C)COC(=O)NC(CCC(=O)O)C(=O)NC(CC(C)C)C(=O)NC(CS)C(=O)NCCc1cccc(F)c1 (stereo not shown) [Compound 126] | –
< 100 µM | – | Cc1cccc(CCNC(=O)C(CS)NC(=O)C(CC(C)C)NC(=O)C(CCC(=O)O)NC(=O)OCC(C)C)c1 (stereo not shown) [Compound 130] | –
– | < 100 µM | COc1ccc(CCNC(=O)[C@H](CS)NC(=O)[C@H](CC(C)C)NC(=O)[C@H](CCC(=O)O)NC(=O)C2CCCCCC2)cc1 [Compound 232] | –
– | < 100 µM | CC(C)CC(O)C(=O)N[C@@H](CCC(=O)O)C(=O)N[C@@H](CC(C)C)C(=O)N[C@@H](CS)C(=O)NCCc1ccccc1Cl (stereo partly shown) [Compound 229] | –
– | < 100 µM | C=CCCC(=O)N[C@@H](CCC(=O)O)C(=O)N[C@@H](CC(C)C)C(=O)N[C@@H](CS)C(=O)NCCc1ccccc1Cl [Compound 228] | –
< 100 µM | – | COC(=O)c1cccc(CCNC(=O)C(CS)NC(=O)C(CC(C)C)NC(=O)C(CCC(=O)O)NC(=O)OCC(C)C)c1 (stereo not shown) [Compound 132] | –
< 100 µM | – | CC(C)COC(=O)N[C@@H](CCC(=O)O)C(=O)N[C@@H](CC(C)C)C(=O)N[C@@H](CS)C(=O)NCC1(c2ccccc2)CC1 [Compound 109] | –
< 100 µM | – | CC(C)COC(=O)NC(CCC(=O)O)C(=O)NC(CC(C)C)C(=O)NC(CS)C(=O)NCCc1c[nH]c2ccccc12 (stereo not shown) [Compound 189] | –
< 100 µM | – | CC(C)COC(=O)NC(CCC(=O)O)C(=O)NC(CC(C)C)C(=O)NC(CS)C(=O)NCCc1ccc(Cl)c(Cl)c1 (stereo not shown) [Compound 172] | –
< 100 µM | – | CC(C)COC(=O)NC(CCC(=O)O)C(=O)NC(CC(C)C)C(=O)NC(CS)C(=O)NCCc1ccc(Oc2ccccc2)cc1 (stereo not shown) [Compound 145] | –
< 100 µM | – | CC(C)COC(=O)NC(CCC(=O)O)C(=O)NC(CC(C)C)C(=O)NC(CS)C(=O)NCC1(c2ccccc2)CCC1 (stereo not shown) [Compound 110] | –
– | < 100 µM | COc1ccc(CCNC(=O)[C@H](CS)NC(=O)[C@H](CC(C)C)NC(=O)[C@H](CCC(=O)O)NC(=O)C2CCCCC2)cc1 [Compound 231] | –
< 100 µM | – | CC(C)COC(=O)NC(CCC(=O)O)C(=O)NC(CC(C)C)C(=O)NC(CS)C(=O)NCCc1ccc(Cl)cc1 (stereo not shown) [Compound 138] | –
– | < 100 µM | COc1ccc(CCNC(=O)[C@H](CS)NC(=O)[C@H](CC(C)C)NC(=O)[C@H](CCC(=O)O)NC(=O)c2ccco2)cc1 [Compound 214] | –
< 100 µM | – | CCOc1ccc(CCNC(=O)C(CS)NC(=O)C(CC(C)C)NC(=O)C(CCC(=O)O)NC(=O)OCC(C)C)cc1 (stereo not shown) [Compound 144] | –
